# Measured values as given in ChEMBL document CHEMBL1157532, “Halichonadin F and the Cu(I) complex of halichonadin C from the sponge Halichondria sp” (2008).
# Key:
# Assay type in all cases: functional
# [1] = system: Micrococcus luteus; assay: Antimicrobial activity against Micrococcus luteus
# [2] = system: Trichophyton mentagrophytes; assay: Antimicrobial activity against Trichophyton mentagrophytes
# [3] = system: Cryptococcus neoformans; assay: Antimicrobial activity against Cryptococcus neoformans
smiles,measurement,setting,value
C[C@@H]1CC[C@@H]2[C@@H]1[C@H]1[C@@H](CC[C@]2(C)N)C1(C)C [HALICHONADIN F],MIC,[1],4 mg/L
same,MIC,[2],16 mg/L
same,MIC,[3],16 mg/L
